Measured values from patent US9861616B2, “Methods for treating respiratory diseases and formulations therefor” (priority 2013, dated 2018).
Read-outs that look alike come from different tables or passages of the source.

How the values were obtained:
MRSA SA 2230, SA 2232 = experiment: Time-kill macrobroth MICs; assay type: cell-based, S. aureus
Procedure: (§1) Original MICs of each strain to CEM-101 and other comparators were tested by CLSI microdilution methodology. Trays were obtained from Trek, Inc., Cleveland, Ohio. Time-kill macrobroth MIC dilution by CLSI was performed for all synergy testing.
(§2) Two of the MRSA strains were chosen and tested for synergy, together with the 4 Gram-negative strains mentioned above. Broth macrodilution formed the basis of MICs used in time-kill experiments, as detailed below. The kill kinetics of each drug was tested alone by incubating an initial inoculum of 5×10^5 to 5×10^6 cfu/mL with drug concentrations at the MIC, three dilutions above and three dilutions below the MIC (½, ¼ and ⅛×MIC). Viability counts were performed after 0, 3, 6, 12 and 24 h incubation at 37° C. in a shaking water bath by plating onto trypticase soy-5% sheep blood agar plates.

[1] = test system: B. cepacia BCEP 953, BCEP 954; experiment: Time-kill macrobroth MICs; assay type: cell-based
Procedure: as §1, §2

[2] = test system: P. aeruginosa PSAR 461, PSAR 468; experiment: Time-kill macrobroth MICs; assay type: cell-based
Procedure: as §1, §2

[3] = test system: B. cepacia strains from cystic fibrosis patients; experiment: Macrobroth dilution MICs, CF strains; assay type: cell-based; settings: 2 B. cepacia strains from cystic fibrosis patients
Procedure: (§3) Two strains each of mucoid P. aeruginosa (both pyocyanin positive) and […] MRSA (only one strain with gold colonies) isolated from patients at a CF clinic were tested. Additionally, 2 B. cepacia strains were acquired, from Hershey Medical Center. All strains were identified by standard methods. Only one strain per patient was tested. MLVA was done on all strains to examine clonality, and confirmed that examination is not taking place on only one or a few clones. Strains will be stored in skim milk at −70° C. until use.
as §1

[4] = test system: P. aeruginosa strains from cystic fibrosis patients; experiment: Macrobroth dilution MICs, CF strains; assay type: cell-based; settings: 2 P. aeruginosa strains from cystic fibrosis patients
Procedure: as §3, §1

[5] = test system: MRSA strains from CF patients; experiment: Microdilution MICs against 40 MRSA strains from CF patients; assay type: cell-based, S. aureus
Procedure: as §3, §1

[6] = 40 MRSA strains from CF patients
[7] = Staphylococcus aureus, 40 MRSA strains from CF patients, read-out: MIC50
[8] = Staphylococcus aureus, 40 MRSA strains from CF patients, read-out: MIC90

Molecule: NCC[C@H](O)C(=O)N[C@@H]1C[C@H](N)[C@@H](O[C@H]2O[C@H](CN)[C@@H](O)[C@H](O)[C@H]2O)[C@H](O)[C@H]1O[C@H]1O[C@H](CO)[C@@H](O)[C@H](N)[C@H]1O [Amikacin]
- Time-kill Macrobroth MIC (MRSA SA 2230, SA 2232; strain SA 2230): 32.0 µg/mL
- Time-kill Macrobroth MIC (MRSA SA 2230, SA 2232; strain SA 2232): 64.0 µg/mL
- Time-kill Macrobroth MIC ([1]; strain BCEP 953): 512 µg/mL
- Time-kill Macrobroth MIC ([1]; strain BCEP 954): 256 µg/mL
- Time-kill Macrobroth MIC ([2]; strain PSAR 461): 8.0 µg/mL
- Time-kill Macrobroth MIC ([2]; strain PSAR 468): 4.0 µg/mL
- MIC Range [3]: 256 µg/mL
- MIC Range [4]: 2 to 8 µg/mL

Molecule: CCCCCCCCCC(=O)N[C@@H](Cc1c[nH]c2ccccc12)C(=O)N[C@H](CC(N)=O)C(=O)N[C@@H](CC(=O)O)C(=O)N[C@@H]1C(=O)NCC(=O)N[C@@H](CCCN)C(=O)N[C@@H](CC(=O)O)C(=O)N[C@H](C)C(=O)N[C@@H](CC(=O)O)C(=O)NCC(=O)N[C@H](CO)C(=O)N[C@@H]([C@H](C)CC(=O)O)C(=O)N[C@@H](CC(=O)c2ccccc2N)C(=O)O[C@@H]1C [Daptomycin]
- MIC Range [5, 6]: 0.5-1^ μg/mL
- MIC50 [5, 7]: 0.5 µg/mL
- MIC90 [5, 8]: 1 µg/mL

Molecule: CC(=O)NC[C@H]1CN(c2ccc(N3CCOCC3)c(F)c2)C(=O)O1 [Linezolid]
- MIC Range [5, 6]: 1 to 4 µg/mL
- MIC50 [5, 7]: 2 µg/mL
- MIC90 [5, 8]: 2 µg/mL

Molecule: CN(C)c1cc(NC(=O)CNC(C)(C)C)c(O)c2c1C[C@H]1C[C@H]3[C@H](N(C)C)C(O)=C(C(N)=O)C(=O)[C@@]3(O)C(O)=C1C2=O [Tigecycline]
- MIC Range [5, 6]: 0.12 to 0.25 µg/mL
- MIC50 ([5]; Staphylococcus aureus, MRSA): 0.12 µg/mL
- MIC90 ([5]; Staphylococcus aureus, MRSA): 0.25 µg/mL

Molecule: NC[C@H]1O[C@H](O[C@H]2[C@H](O)[C@@H](O[C@H]3O[C@H](CO)[C@@H](O)[C@H](N)[C@H]3O)[C@H](N)C[C@@H]2N)[C@H](N)C[C@@H]1O [Tobramycin]
- Time-kill Macrobroth MIC (MRSA SA 2230, SA 2232; strain SA 2230): 4.0 µg/mL
- Time-kill Macrobroth MIC (MRSA SA 2230, SA 2232; strain SA 2232): > 512 µg/mL
- Time-kill Macrobroth MIC ([1]; strain BCEP 953): 128 µg/mL
- Time-kill Macrobroth MIC ([1]; strain BCEP 954): 128 µg/mL
- Time-kill Macrobroth MIC ([2]; strain PSAR 461): 2.0 µg/mL
- Time-kill Macrobroth MIC ([2]; strain PSAR 468): 1.0 µg/mL
- MIC Range [3]: 128 µg/mL
- MIC Range [4]: 0.25 to 1.0 µg/mL

Molecule: CN[C@H](CC(C)C)C(=O)N[C@H]1C(=O)N[C@@H](CC(N)=O)C(=O)N[C@H]2C(=O)N[C@H]3C(=O)N[C@H](C(=O)N[C@H](C(=O)O)c4cc(O)cc(O)c4-c4cc3ccc4O)[C@H](O)c3ccc(c(Cl)c3)Oc3cc2cc(c3O[C@@H]2O[C@H](CO)[C@@H](O)[C@H](O)[C@H]2O[C@H]2C[C@](C)(N)[C@H](O)[C@H](C)O2)Oc2ccc(cc2Cl)[C@H]1O [Vancomycin]
- MIC Range [5, 6]: 0.5-1^ μg/mL
- MIC50 ([5]; Staphylococcus aureus, MRSA): 0.5 µg/mL
- MIC90 ([5]; Staphylococcus aureus, MRSA): 1 µg/mL

Molecule: Teicoplanin
- MIC50 [5, 6]: 0.5 µg/mL
- MIC90 [5, 6]: 1 µg/mL
- MIC Range [5, 6]: 0.25 to 1 µg/mL
